In PubChem BioAssay AID651650 (Sanford-Burnham Center for Chemical Genomics, 2012):
Activity calls are given as the source filed them.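 Rule for the calls: active = mean IC50 below 20 µM in each of the two panels, so potent in both; inactive = the rest.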

What follows are compounds tested against Neuropilin-1 (Homo sapiens) (UniProt O14786) (assay: blockers of CendR peptide binding to NRP-1 – biochemical, FP and AlphaScreen panel, dose response (AID 651650)). Settings: NRP-1 b1b2 / RPARPAR peptide binding, FP or AlphaScreen; AlphaScreen, run 1; individual panel run IC50.
Chain of Neuropilin-1 (Homo sapiens) (O14786 whole entry, looked up): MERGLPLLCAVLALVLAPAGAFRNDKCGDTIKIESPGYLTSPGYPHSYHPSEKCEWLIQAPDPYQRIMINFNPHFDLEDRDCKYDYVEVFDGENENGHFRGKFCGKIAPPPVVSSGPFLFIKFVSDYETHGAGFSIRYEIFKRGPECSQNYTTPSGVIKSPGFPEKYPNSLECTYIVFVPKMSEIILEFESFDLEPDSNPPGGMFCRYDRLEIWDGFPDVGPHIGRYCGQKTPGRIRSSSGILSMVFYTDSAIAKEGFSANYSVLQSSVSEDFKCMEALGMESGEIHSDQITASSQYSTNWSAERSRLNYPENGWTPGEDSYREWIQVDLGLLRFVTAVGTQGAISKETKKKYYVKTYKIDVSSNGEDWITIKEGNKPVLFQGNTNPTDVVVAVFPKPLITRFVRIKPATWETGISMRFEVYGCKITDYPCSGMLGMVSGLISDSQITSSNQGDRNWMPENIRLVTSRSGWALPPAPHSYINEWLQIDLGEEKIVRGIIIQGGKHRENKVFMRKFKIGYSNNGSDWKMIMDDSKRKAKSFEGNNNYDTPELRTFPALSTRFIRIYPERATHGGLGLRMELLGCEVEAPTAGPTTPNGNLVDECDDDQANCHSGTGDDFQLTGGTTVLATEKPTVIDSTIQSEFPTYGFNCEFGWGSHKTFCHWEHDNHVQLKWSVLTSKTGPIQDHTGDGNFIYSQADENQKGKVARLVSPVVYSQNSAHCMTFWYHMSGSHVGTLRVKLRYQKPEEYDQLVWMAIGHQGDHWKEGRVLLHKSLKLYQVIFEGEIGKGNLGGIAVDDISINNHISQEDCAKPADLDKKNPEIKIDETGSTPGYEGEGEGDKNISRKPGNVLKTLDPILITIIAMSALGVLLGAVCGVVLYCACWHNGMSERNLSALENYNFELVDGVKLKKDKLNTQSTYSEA
In the case of `CN(C)/N=C/c1ccc(Sc2ccc([N+](=O)[O-])cc2[N+](=O)[O-])o1`, the IC50 is reported as 85.7 µM. For `C=C(C)COc1ccc(-c2[nH]ncc2-c2ccccc2)c(O)c1`, the IC50 was over 100 µM. For `Cc1cc(NC(=O)COC(=O)c2ccc(C)c(C)c2)no1`, the IC50 was over 100 µM. Work on `COc1cc(C(=O)OCC(=O)Nc2c(F)c(F)c(F)c(F)c2F)cc(OC)c1OC` yielded an IC50 of over 100 µM. `COc1ccc(Cl)cc1NC(=O)C(C)N1CCc2ccccc21` (stereo not drawn) gave an IC50 of 45.6 µM. `CC(C(=O)N1CCN(c2ccc(Cl)cc2)CC1)c1ncc(C(F)(F)F)cc1Cl` (stereo not drawn) was tested, and the IC50 was over 100 µM. With `O=C(O)c1cc(NCc2ccc(F)cc2)ccc1N1CCOCC1` the IC50 was over 100 µM. Work on `O=[N+]([O-])c1ccc(-n2nnnc2CN2CCCCC2)cc1` yielded an IC50 of over 100 µM. For `CC(C)C(N)c1csc(NC(=O)Nc2cccc(C(F)(F)F)c2)n1` (stereo not drawn), the IC50 was over 100 µM. `Cc1ccccc1NC(=O)c1cccc(NC(=O)CCC(=O)O)c1` was tested, and the IC50 was over 100 µM. Work on `O=C(O)c1ccccc1CSc1ccccn1` yielded an IC50 of 16.5 µM. `O=C1C=CC(=O)C2C1C1(Cl)C(Cl)=C(Cl)C2(Cl)C1(Cl)Cl` (stereo not drawn) was tested, and the IC50 was over 100 µM. `O=C(/C=C/c1ccccc1)c1ccccn1` was tested, and the IC50 was over 100 µM. In the case of `Cc1ccc(S(=O)(=O)N2[C@@H](c3ccc(Cl)cc3)C(C(=O)OC(C)(C)C)=CC[C@H]2c2ccc(Cl)c(Cl)c2)cc1`, the IC50 is reported as 41 µM. For `Cc1ccc(OCC(=O)Nc2ccc(C)c(S(=O)(=O)N3CCCCCC3)c2)c([N+](=O)[O-])n1`, the IC50 was over 100 µM. Work on `CN(c1ccccc1)S(=O)(=O)c1cccc(NC(=O)CSc2nncn2C)c1` yielded an IC50 of over 100 µM. `O=Cc1ccc(-c2ccccc2C(=O)O)o1` showed an IC50 of over 100 µM. `CCOC(=O)CNc1ccc2c(c1)OCO2` showed an IC50 of 27.8 µM. Compound `Cc1ccc(C(=O)C2CN3CCC2CC3)cc1` (stereo not drawn) has an IC50 of over 100 µM. Work on `COC(=O)CCCC1=CC2=CC(=O)C(C)(OC(=O)c3cccs3)C(=O)C2=CN1CCCCO` (stereo not drawn) yielded an IC50 of over 100 µM. For `O=[N+]([O-])c1ccc(Nc2nc(NC3CCCCC3)nc(N3CCCC3)n2)cc1`, the IC50 was over 100 µM. With `O=C1CCC/C=C\C[C@@H](CC(=O)N(CCO)Cc2ccccc2)C(=O)N2CCC[C@H]2CO1` the IC50 was over 100 µM. Compound `CCOC(=O)N1CCN(C(=O)c2cc(COc3ccc(OC)cc3Cl)on2)CC1` has an IC50 of over 100 µM. `Cc1cccc(NS(=O)(=O)c2cccs2)c1` gave an IC50 of over 100 µM. Compound `CC1CCN(C(=O)c2[nH]cnc2C(=O)NCc2ccc(CNC(=O)OC(C)(C)C)cc2)CC1` has an IC50 of 12.9 µM. `O=C(CN1C2=NCCN2c2ccccc21)c1ccco1` gave an IC50 of over 100 µM. `COc1ccc([C@H]2/C=C\CN(C(=O)C3CC3)[C@@H](C)C(=O)N2Cc2ccc(F)cc2)cc1` gave an IC50 of over 100 µM. Compound `CC(=O)Nc1ccccc1OCC(=O)N(Cc1ccccc1)C(C)C` has an IC50 of over 100 µM. `Cc1ccc(Cl)cc1N1CCN(C(=O)c2cccc3c(=O)c(C)c(-c4ccccc4)oc23)CC1` was tested, and the IC50 was over 100 µM. In the case of `CCN(CC)C(=O)C1CCCN(C(=O)Nc2ccc3nsnc3c2)C1` (stereo not drawn), the IC50 is reported as over 100 µM. For `Cc1csc(NC(C)c2nc3cc(C(F)(F)F)ccc3n2CCOCCO)n1` (stereo not drawn), the IC50 was over 100 µM. In the case of `COc1ccc(OCC(=O)O/N=C(\N)Cc2ccc(Cl)cc2Cl)cc1`, the IC50 is reported as 55.3 µM. `CC(O)(c1cccnc1)c1nc(/C=C/c2ccccc2)cs1` (stereo not drawn) showed an IC50 of over 100 µM. Work on `COc1ccc(CCNC(=O)c2c(O)c3cccc4c3n(c2=O)CC4)cc1OC` yielded an IC50 of over 100 µM. In the case of `O=C(Nc1ccccc1N1CCOCC1)c1ccc(N2CCCC2=O)cc1`, the IC50 is reported as over 100 µM.

Same assay, conditions: NRP-1 b1b2 / RPARPAR peptide binding, FP or AlphaScreen; FP, mean of runs
`O=c1c2cn[nH]c2nc(SCc2ccccc2F)n1-c1ccc(Br)cc1` was tested, and the IC50 was > 95 µM (inactive). `CCOC(=O)C1(Cc2cccc(F)c2)CCN(Cc2ccon2)CC1` was tested, and the IC50 was > 95 µM (inactive). With `Cc1cc(C)n2c(SCC(=O)Nc3cccc(S(N)(=O)=O)c3)nnc2n1` the IC50 was > 95 µM (inactive). `NS(=O)(=O)c1ccc(CNC(=S)NCc2ccc(F)cc2)cc1` was tested, and the IC50 was > 95 µM (inactive). In the case of `CCC1CCCCN1CCCNC(=O)C1CCCN(S(=O)(=O)N2CC(C)CC(C)C2)C1` (stereo not drawn), the IC50 is reported as > 95 µM (inactive). With `CC(=O)C(C(c1ccccc1)N1CCCc2ccccc21)N1CCOCC1` (stereo not drawn) the IC50 was > 95 µM (inactive). `O=c1[nH]c(Nc2ccccn2)cc2ccccc12` was tested, and the IC50 was > 95 µM (inactive). For `NNc1ncnc2c1cnn2-c1ccccc1`, the IC50 was > 95 µM (inactive). With `COC(=O)CCCC1=CC2=CC(=O)C(C)(OC(=O)c3cccs3)C(=O)C2=CN1CCCOC(C)C` (stereo not drawn) the IC50 was > 95 µM (inactive). `Cc1nnc(NC(=O)c2ccccc2C(=O)O)s1` was tested, and the IC50 was > 95 µM (inactive). With `COc1ccc(-c2[nH]ncc2CN(C)CCc2c(C)n[nH]c2C)c(F)c1` the IC50 was > 95 µM (inactive). With `CN(C)/N=C/c1ccc(Sc2ccc([N+](=O)[O-])cc2[N+](=O)[O-])o1` the IC50 was > 95 µM (inactive). With `C=C(C)COc1ccc(-c2[nH]ncc2-c2ccccc2)c(O)c1` the IC50 was > 95 µM (inactive). `Cc1cc(NC(=O)COC(=O)c2ccc(C)c(C)c2)no1` was tested, and the IC50 was > 95 µM (inactive). `COc1cc(C(=O)OCC(=O)Nc2c(F)c(F)c(F)c(F)c2F)cc(OC)c1OC` was tested, and the IC50 was > 95 µM (inactive). In the case of `COc1ccc(Cl)cc1NC(=O)C(C)N1CCc2ccccc21` (stereo not drawn), the IC50 is reported as “inactive”. With `CC(C(=O)N1CCN(c2ccc(Cl)cc2)CC1)c1ncc(C(F)(F)F)cc1Cl` (stereo not drawn) the IC50 was > 95 µM (inactive). For `O=C(O)c1cc(NCc2ccc(F)cc2)ccc1N1CCOCC1`, the IC50 was > 95 µM (inactive). For `O=[N+]([O-])c1ccc(-n2nnnc2CN2CCCCC2)cc1`, the IC50 was > 95 µM (inactive). For `CC(C)C(N)c1csc(NC(=O)Nc2cccc(C(F)(F)F)c2)n1` (stereo not drawn), the IC50 was > 95 µM (inactive). `Cc1ccccc1NC(=O)c1cccc(NC(=O)CCC(=O)O)c1` was tested, and the IC50 was > 95 µM (inactive). For `O=C(O)c1ccccc1CSc1ccccn1`, the IC50 was > 95 µM (inactive). For `O=C1C=CC(=O)C2C1C1(Cl)C(Cl)=C(Cl)C2(Cl)C1(Cl)Cl` (stereo not drawn), the IC50 was > 95 µM (inactive).
